These results are taken from patent US7498292B2, “Combinatorial libraries of autoinducer analogs, autoinducer agonists and antagonists, and methods of use thereof” (The Research Foundation of State University of New York, priority 2002, dated 2009).

Experiment [1] addresses T1, LasR (Pseudomonas aeruginosa, UniProt P25084).
T1 construct: endogenous in cells; host or cells: P. aeruginosa PAO-JP2 (lasI, rhlI) harboring plasI-LVAgfp
The experiment is described as follows: lasI-gfp reporter agonist assay, PAO-JP2 (plasI-LVAgfp). The class given is cell-based, P. aeruginosa. Particulars: for agonist activity (induction of lasI-gfp reporter): PAO-JP2 (plasI-LVAgfp), compounds made in solution phase, increasing concentrations (1, 100, 400 μM). From the text:
Since this strain lacks the ability to produce natural AIs due to disruption of both AI synthase genes, activation of LasR relies on the addition of exogenous AI1. Expression of gfp (encoding green fluorescent protein) is under control of the LasR-AI1 inducible lasI promoter, allowing rapid screening for LasR agonists by measuring the level of GFP expression in their presence.
(§1) P. aeruginosa strain PAO-JP2 (lasI, rhlI) (Rahme et al., Science 268:1899-1902 (1995), which is hereby incorporated by reference in its entirety) harboring plasI-LVAgfp (Pearson et al., Proc. Natl Acad. Sci. USA 91:197-201 (1994), which is hereby incorporated by reference in its entirety) was grown at 37° C. in LB with 300 μg/ml carbenicillin. For agonist assays, an overnight culture was diluted to an OD600 of 0.1 and transferred to wells of a 96-well plate on which test compounds had previously been added and dried. The final concentration of each analog tested was roughly 400 μM, although this is an overestimate due to purity issues. Cells were then incubated for 6 hours at 37° C. with vigorous shaking. GFP expression was detected with a Molecular Imager (BioRad) (488 nm excitation and 695 nm bandpass filter) and quantified with ImageQuant software. The OD600 of cultures was determined to normalize GFP expression to cell density.
(§2) Reporter strains were grown overnight in LB plus 300 μg/ml carbenicillin at 37° C. and diluted to an OD600 of 0.1. Following an incubation of 1 hour, 200 μl of cell culture was added to individual wells of a 96 well plate containing appropriate amount of test compound(s). Plates were incubated for 6 hours and then scanned for fluorescence emission with a Molecular Imager (488 nm excitation and 695 nm bandpass filter). Fluorescence was quantified with ImageQuant software.

Experiment [2] concerns the target T1, LasR. Description: lasB-lacZ reporter assay, E. coli MG4 (pKDT37). Format: cell-based, P. aeruginosa. As to the method: E. coli strain MG4 (pKDT37) was grown overnight in Supplemented A media with 100 μg/mL ampicillin at 30° C. and diluted 1:100 in the same media. 1 mL of this culture was added to a test tube containing AI1 or 3-oxo-C12-D12 that had been previously aliquoted and dried. Following a 6 hour incubation at 30° C., β-galactosidase activity was determined using standard methods (Platt et al., Assays of the lac operon Enzymes In: Experiments in Molecular Genetics, Cold Spring Harbor Laboratory Press, Cold Spring Harbor, N.Y., pp. 352-355 (1972), which is hereby incorporated by reference in its entirety).
One of the new agonist structures identified from the library, D12, is 2-aminocyclohexanol (FIG. 5B). […] 3-oxo-C12-D12, containing the natural side chain, was synthesized in solution phase, and tested with both the lasI-gfp reporter as well as a lasB-lacZ reporter in Escherichia coli. E. coli strain MG4 harboring plasmid pKDT37 expresses lasR and contains a lacZ reporter gene controlled by a LasR-AI1 inducible lasB promoter (Passador et al., J. Bacteriol. 178:5995-6000 (1996), which is hereby incorporated by reference in its entirety). […] It also provides strong evidence that the agonist activity in P. aeruginosa is LasR dependent.
On the technique in general: Reporter assays use an easily measured gene product as a stand-in for the process of interest.

For experiment [3], the system named is RhlR. Description: rhlI-gfp reporter antagonist assay, PAO-JP2 (prhlI-LVAgfp). The class given is cell-based, P. aeruginosa. Particulars: competing against 1 μM AI1 and 10 μM AI2. As to the method: Each compound in the library was tested for antagonist activity using the same reporter strain, PAO-JP2 (plasI-LVAgfp) (de Kievit et al., Appl. Environ. Microbiol. 67:865-1873 (2001), which is hereby incorporated by reference in its entirety) to find compounds that could compete against AI1 and reduce GFP expression. The methods were the same as described in Example 2 (GFP Reporter Assay), except that 1 μM AI1 was added to each well in combination with the library compound. The fluorescence/OD600 of each compound competing against AI1 was reported relative to the fluorescence/OD600 of the positive control of AI1 alone, which was set to 1. When strain PAO-JP2 (prhlI-LVAgfp) was used, the positive control was 1 μM AI1 and 10 μM AI2.
3- oxo-C12-D10 was synthesized in solution phase, where the natural side chain was coupled with D10 and purified by chromatography. To determine if the same structural motif can be applied to inhibition of the RhlR-AI2 interaction, C4-D10 was also synthesized. Assays were performed with both the lasI-gfp reporter PAO-JP2 (plasI-LVAgfp) and an RhlR-AI2 controlled rhlI-gfp reporter, PAO-JP2 (prhlI-LVAgfp) (FIGS. 10A-C) (de Kievit et al., Appl. Environ. Microbiol. 67:865-1873 (2001), which is hereby incorporated by reference in its entirety).
as §2
Next the ability of 2 and 3 to inhibit the rhlI-gfp reporter strain PAO-JP2 (prhlI-LVAgfp) was tested, since this expression is also AI1-dependent.

The target of experiment [4] is T2, RhlR (Pseudomonas aeruginosa, UniProt P54292).
T2 construct: an RhlR-AI2 controlled rhlI-gfp reporter, PAO-JP2 (prhlI-LVAgfp); endogenous in cells; host or cells: P. aeruginosa PAO-JP2 (prhlI-LVAgfp)
Format: cell-based, P. aeruginosa. Particulars: for AI2 agonist activity (induction of rhlI-gfp reporter): in the presence of 1 μM AI1, 10, 100, 400 μM analog. On the procedure: Thus, it was hypothesized that a 5- or 6-membered ring with a keto or hydroxyl group (or other hydrogen bond acceptor) adjacent to the amine is sufficient for both binding and activation of LasR. To test this hypothesis, the series of molecules shown in FIG. 13 (compounds 14) was synthesized.
as §2
The C4 compounds (A12 and 5-8) were analyzed for agonist activity using PAO-JP2 (prhlI-LVAgfp) (FIGS. 14C and D). Induction of GFP expression in this reporter requires addition of both AI1 and AI2. The AI2 control and agonist assays, therefore, were performed in the presence of 1 μM AI1 and increasing concentrations of AI2 or analog (FIGS. 14C and D).

For experiment [5], the target named is T1, LasR. The experiment is described as follows: lasI-gfp reporter antagonist (competition against AI1) assay, PAO-JP2 (plasI-LVAgfp). The class given is cell-based, P. aeruginosa. The following applies: for reduction of GFP expression (lasI-gfp): 1 μM AI1. As to the method: as §1
The methods were the same as described in Example 2 (GFP Reporter Assay), except that 1 μM AI1 was added to each well in combination with the library compound. The fluorescence/OD600 of each compound competing against AI1 was reported relative to the fluorescence/OD600 of the positive control of AI1 alone, which was set to 1. When strain PAO-JP2 (prhlI-LVAgfp) was used, the positive control was 1 μM AI1 and 10 μM AI2. Eight compounds that inhibited reporter gene expression by greater than 50% were identified (see, e.g., FIG. 6).
as §2

The test system of experiment [6] is Elastase B. The experiment is described as follows: elastase (Elastin Congo Red) assay, strain PAO-JP2. Format: cell-based, P. aeruginosa PAO-JP2. The following applies: PAO-JP2, 10-100 μM compound, competing against 5 μM AI1 and 10 μM AI2. On the procedure: (§3) Pyocyanin, elastase, and biofilm were assayed as previously described (Smith et al., Chem. Biol. 10:81-89 (2003), which is hereby incorporated by reference in its entirety). Elastase activity produced by P. aeruginosa in the presence of AIs and competing 3-oxo-C12-D10 was determined by measuring breakdown of the substrate Elastin Congo Red.
(§4) For the elastase B assay, cells (PAO-JP2) were grown overnight in PTSB media (5% Peptone, 0.1% Tryptic Soy Broth) at 37° C., washed and diluted to an OD600 of 0.05, grown to mid-log phase, washed again, and re-suspended to an OD600 of 0.05. The culture was then added to test tubes containing test compound(s) and grown for 6 hours. Elastase B activity was quantified by incubation of 100 μl of filtered culture supernatant with 5 mg Elastin Congo Red substrate and 1 ml of 10 mM Tris pH 7.2, 1 mM CaCl2 for 6 hours at 37° C. with agitation. Elastase B activity is represented by the OD495 of the enzyme assay following reaction quenching with EDTA and centrifugation to remove unreacted substrate, divided by the OD600 of the cell culture. The same assay was run with strain PAO-1, however no exogenous autoinducers were added.

The test system of experiment [7] is Elastase B. Description: elastase (Elastin Congo Red) assay, wild type strain PAO1. Format: cell-based, P. aeruginosa PAO1. Particulars: wild type PAO1, no exogenous autoinducers. As to the method: as §3, §4
In experiment [8] the test system is pyocyanin. The experiment is described as follows: pyocyanin assay, strain PAO-JP2. Format: cell-based, P. aeruginosa PAO-JP2. Particulars: PAO-JP2, 25 μM each of AI1 and AI2, 18 hours. On the procedure: (§5) For the pyocyanin assay, cells were grown overnight in LB then washed in fresh media and diluted to an OD600 of 0.05. This culture was grown for 3-4 hours to mid-log phase (OD600 of 0.3-0.5), then diluted to an OD600 of 0.05, and aliquoted to test tubes containing an appropriate amount of test compound(s). Following 18 hours of growth, pyocyanin was extracted from filtered culture supernatants and quantified using standard methods (Essar et al., J. Bacteriol. 172:884-900 (1990), which is hereby incorporated by reference in its entirety).

The subject of experiment [9] is pyocyanin. The experiment is described as follows: pyocyanin assay, wild type strain PAO1. The class given is cell-based, P. aeruginosa PAO1. Particulars: wild type PAO1, no AIs added. As to the method: as §5
In experiment [10] the test system is PAO-JP2 (pTdK-GFP) biofilm. Description: static biofilm assay, PAO-JP2 (pTdK-GFP). The class given is cell-based, P. aeruginosa. Particulars: PAO-JP2 (pTdK-GFP) with exogenous AIs, 24-hour static assay. As to the method: (§6) Compound 3 was tested for its effect on biofilm development in a 24-hour assay that looks at the early stages of biofilm formation. […] Cultures were grown at 37° C. with shaking for 30 minutes, and then allowed to sit at 37° C. for an additional 23.5 hours. Coverslips were then rinsed and placed on slides for visualization using an MRC1024 Laser Scanning Microscope (BioRad) with a Nikon Fluor-60X oil emersion objective lens (NA=1.4), 488 nm Argon Laser and OG515 filter.

The test system of the next experiment is PAO1 (pTdK-GFP) biofilm. Description: static biofilm assay, PAO1 (pTdK-GFP). Format: cell-based, P. aeruginosa. As to the method: as §6
The same assay was run with strain PAO-1 (pTdK-GFP), and no exogenous autoinducers were added. […] The above results provide additional evidence that compound 3 interferes with QS signaling and reduces the production of important virulence factors.

“Also recorded” adds a separate entry of the source. Where two headings read alike, the source gives them in different places.

T1 sequence (P25084 whole entry): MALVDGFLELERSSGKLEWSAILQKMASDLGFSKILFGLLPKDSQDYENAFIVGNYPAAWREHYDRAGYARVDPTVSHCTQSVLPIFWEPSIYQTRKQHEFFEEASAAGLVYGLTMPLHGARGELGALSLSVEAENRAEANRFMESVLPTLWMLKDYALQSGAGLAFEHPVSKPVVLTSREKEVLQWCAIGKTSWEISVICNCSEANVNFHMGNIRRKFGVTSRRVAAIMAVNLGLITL
T2 sequence (P54292 whole entry): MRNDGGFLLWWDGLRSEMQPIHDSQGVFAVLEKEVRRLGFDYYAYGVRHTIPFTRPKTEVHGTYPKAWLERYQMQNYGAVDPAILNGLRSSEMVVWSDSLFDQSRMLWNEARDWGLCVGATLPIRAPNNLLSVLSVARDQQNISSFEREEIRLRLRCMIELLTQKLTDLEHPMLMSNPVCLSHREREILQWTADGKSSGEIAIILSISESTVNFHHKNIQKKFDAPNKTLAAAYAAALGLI

`CCCCCCCCCC(=O)CC(=O)N[C@@H]1CCCC[C@H]1O` (relative stereo) [Compound 4, N-(trans-2-hydroxycyclohexyl)-3-oxododecanamide]: the figures for the “agonist activity (induction of lasI-gfp reporter)” value at LasR [1] and on LasR [1] (listed as 3-oxo-C12-D12) were “strong agonist activity; also recorded: strongest agonist” and “activated”, respectively. On LasR [1] (at 1 μM), the “GFP induction, fold less than AI1” value turned out to be 2 fold. Moreover, the “GFP induction compared with AI1” value on LasR [1] (at higher concentrations (100, 400 μM)) is reported as “comparable to AI1”. In addition, the “lasB-lacZ reporter activation (beta-galactosidase activity)” value at LasR [2] (E. coli MG4 (pKDT37), 6 hour incubation) is “activated”. The “LasR inducing activity compared with natural AI1” value on LasR [2] (lasI-gfp and lasB-lacZ reporters (FIG. 9)) is “comparable to the natural AI1”.
Consider `CCCC(=O)N[C@@H]1CCC[C@H]1O` (relative stereo) [Compound 6, N-(trans-2-hydroxy)cyclopentylbutanamide], for which the “antagonist activity on rhlI-gfp reporter” value with RhlR [3] is reported as “no inhibition”. Besides, the “AI2 agonist activity (induction of rhlI-gfp reporter)” value (“AI2 agonist activity” for short) at RhlR [4] is on record as “no agonist activity”; at RhlR [4] (listed as C4-(2-aminocylcopentanol)) it was “could not activate RhlR”.
`CCCC(=O)N[C@@H]1CCCC[C@H]1O` (relative stereo) [Compound 8, N-(trans-2-hydroxy)cyclohexylbutanamide]: the “GFP expression (rhlI-gfp)” value at RhlR [4] (400 μM analog, 1 μM AI1) is reported as “moderate GFP expression”. Besides, the “AI2 agonist activity” value at RhlR [4] is reported as “very little AI2 agonist activity”.
As for `CCCCCCCCCC(=O)CC(=O)Nc1ccccc1O` [3-oxo-C12-D10], the “las circuit inhibition, comparison of potency” value on LasR [5] is listed as “more potent than 3”. Also, the results for the “reduction of GFP expression (lasI-gfp)” value at LasR [5] (10 μM compound) and at LasR [5] (100 μM compound) were “approximately 60%” and approximately 90%, respectively. Moreover, the “inhibition of GFP expression (rhlI-gfp)” value in the experiment with RhlR [3] (50 μM compound) is listed as “more than 80%”. Also, in the experiment with Elastase B [6], the “reduction of elastase activity” value is reported as “approximately 50%”. The “effect on elastase activity” value with Elastase B [7] is “reduced elastase activity”. Besides, the “effect on pyocyanin production” value with pyocyanin [8] and in the experiment with pyocyanin [9] was “not able to interfere with pyocyanin production” throughout. The “effect on biofilm formation” value is reported as “slightly enhanced rather than inhibited” in experiment [10] and “did not interfere with biofilm formation” in the experiment on PAO1 (pTdK-GFP) biofilm (wild type PAO1, no exogenous autoinducers). For the same molecule, in the experiment with PAO1 (pTdK-GFP) biofilm (wild type PAO1), the “effect on biofilm morphology” value is recorded as “fluffy”.
Regarding `CCCCCCCCCC(=O)CC(=O)NC1CCCC1=O` (stereo not shown) [Compound 1, N-(2-oxocyclopentyl)-3-oxododecanamide], on LasR [1], the “agonist activity (induction of lasI-gfp reporter)” value was “able to induce the reporter only at a very high concentration; also recorded: weak agonist”.
For `CCCC(=O)NC1CCCC1=O` (stereo not shown) [Compound 5, N-2-oxocyclopentylbutanamide], the “AI2 agonist activity” value on RhlR [4] is “strong agonist activity”.
Turning to `CCCC(=O)NC1CCCCC1=O` (stereo not shown) [Compound 7, N-2-oxocyclohexylbutanamide], the “AI2 agonist activity” value on RhlR [4] was “strong agonist activity”.
